From patent EP4707280A1, “1,4-CINEOLE DERIVATIVE AND INTERMEDIATE THEREOF, HERBICIDE CONTAINING SAID DERIVATIVE AS ACTIVE INGREDIENT, METHOD FOR USING HERBICIDE, AND METHOD FOR PREPARING AGROCHEMICAL COMPOSITION” (HOKKO CHEMICAL INDUSTRY CO., LTD., priority 2023, dated 2024)

Key:
Assay type in all cases: in vivo
[1] = system: Echinochloa crus-galli var. formosensis at the three-leaf stage; test: Comparative Example: herbicidal effect test by application during growth period of paddy rice (three-leaf stage, Table 7); conditions: active ingredient 7.5 g per 10 ares, emulsifiable concentrate applied by dropper to flooded pots, 21 days after chemical application, triplicate; for inhibition at 75 g/ha: 504 h, read-out: Weed inhibition rate (%)
Method: As an example, the herbicidal effect on Echinochloa crus-galli var. formosensis at the three-leaf stage was confirmed by the following method, and the results are specifically shown in Table 7 as a comparative example.
Wagner pots with an area of […] were filled with paddy soil, followed by addition of water and incorporation of chemical fertilizer (N:P:K = 16:16:16), after which puddling was performed. After that, 30 seeds of Echinochloa crus-galli var. formosensis were sown at a depth of 0 cm to 1 cm. Immediately after sowing, the pots were flooded and a water depth of approximately 3 cm was maintained. Subsequent management was conducted in a glass greenhouse. When Echinochloa crus-galli var. formosensis reached the three-leaf stage, an emulsifiable concentrate prepared according to Formulation Example 5 using the compound shown below was diluted with water, and a specified amount of the diluted solution was applied by dropper. The amount of the active ingredient to be applied was equivalent to 7.5 g per 10 ares. The test was conducted in triplicate for each chemical concentration group, and the weed inhibition rate (%) was determined 21 days after chemical application using the following formula (Math. 1).

[2] = system: Echinochloa crus-galli; test: Test Example 4: herbicidal effect test by stem and leaf treatment in upland field; conditions: Echinochloa crus-galli; 120 g per 10 ares; sprayed seven days after sowing, upland soil; 14 days after application; read-out: weed inhibition rate
[3] = system: Amaranthus viridis; test: Test Example 3: herbicidal effect test by soil application in upland field; conditions: Amaranthus viridis, 120 g per 10 ares, sprayed one day after sowing, 14 days after application, read-out: weed inhibition rate
Outline: (§1)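 Weed inhibition (%) was assessed 14 days after treatment, in duplicate per concentration group. Seeds had been mixed into the upper 1 cm of upland alluvial loam, and the soil surface was sprayed one day later with the diluted emulsifiable concentrate at 120 g active ingredient per 10 ares.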

[4] = system: Digitaria ciliaris; test: as above; conditions: Digitaria ciliaris, 120 g per 10 ares, sprayed one day after sowing, 14 days after application, read-out: weed inhibition rate
Outline: as §1

[5] = system: Echinochloa crus-galli; test: as above; conditions: Echinochloa crus-galli, 120 g per 10 ares, sprayed one day after sowing, 14 days after application, read-out: weed inhibition rate
Outline: as §1

[6] = system: Echinochloa crus-galli var. formosensis; test: Test Example 5: herbicidal effect test by soil application in paddy rice (low dose); conditions: Echinochloa crus-galli, soil, 336 h; 7.5 g per 10 ares; applied immediately after sowing, flooded pots; 14 days after application; read-out: weed inhibition rate
Outline: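 7.5 g a.i./10 a applied by dropper into ~3 cm floodwater immediately post-sowing (seeds 0–1 cm, 30 per species; puddled fertilized paddy soil, glasshouse). Duplicates; day-14 inhibition %.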

[7] = system: Echinochloa crus-galli; test: Test Example 8: herbicidal effect test by stem and leaf treatment in upland field (low dose); conditions: Echinochloa crus-galli; 7.5 g per 10 ares; sprayed seven days after sowing, upland soil; 14 days after application; read-out: weed inhibition rate
[8] = system: Echinochloa crus-galli var. formosensis; test: Test Example 2: herbicidal effect test by application during growth period of paddy rice; conditions: Echinochloa crus-galli; 120 g per 10 ares; applied seven days after sowing, flooded pots; 14 days after application; read-out: weed inhibition rate
Outline: (§2)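 Greenhouse pots of flooded paddy soil, seeded shallowly with 30 seeds per weed, are treated on day 7 by dropper with diluted emulsifiable concentrate equal to 120 g a.i./10 a. Duplicate pots are scored for inhibition rate 14 days post-application.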

[9] = system: Echinochloa crus-galli var. formosensis; test: Test Example 6: herbicidal effect test by application during growth period of paddy rice (low dose); conditions: Echinochloa crus-galli; 7.5 g per 10 ares; applied seven days after sowing, flooded pots; 14 days after application; read-out: weed inhibition rate
Outline: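 Emulsifiable concentrate, water-diluted, dropped onto flooded paddy pots 7 days post-sowing at 7.5 g active ingredient/10 a. Greenhouse-grown weeds; percent inhibition scored at day 14 after treatment.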

[10] = system: Echinochloa crus-galli var. formosensis; test: Test Example 1: herbicidal effect test by soil application in paddy rice; conditions: Echinochloa crus-galli, soil, 336 h; 120 g active ingredient per 10 ares; applied immediately after sowing, flooded pots; 14 days after application; read-out: weed inhibition rate
Outline: (§3)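 Flooded-pot paddy assay: sow at 0–1 cm, flood to about 3 cm, then apply diluted emulsifiable concentrate by dropper, 120 g a.i. per 10 ares; greenhouse-grown.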

[11] = system: Digitaria ciliaris; test: Test Example 7: herbicidal effect test by soil application in upland field (low dose); conditions: Digitaria ciliaris, 7.5 g per 10 ares, sprayed one day after sowing, 14 days after application, read-out: weed inhibition rate
Outline: (§4)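 Duplicate pots of alluvial loam, seeds incorporated in the surface 1 cm. Soil surface sprayed 1 d after sowing (EC in water, 100 L/10 a; 7.5 g a.i./10 a). Endpoint: % inhibition, day 14.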

[12] = system: Echinochloa crus-galli; test: as above; conditions: Echinochloa crus-galli, 7.5 g per 10 ares, sprayed one day after sowing, 14 days after application, read-out: weed inhibition rate
Outline: as §4

[13] = system: Amaranthus viridis; test: as above; conditions: 7.5 g per 10 ares, sprayed one day after sowing, upland soil, 14 days after application, read-out: weed inhibition rate
[14] = system: Digitaria ciliaris; test: Test Example 4: herbicidal effect test by stem and leaf treatment in upland field; conditions: Digitaria ciliaris; 120 g per 10 ares; sprayed seven days after sowing, upland soil; 14 days after application; read-out: weed inhibition rate
[15] = system: Monochoria vaginalis; test: Test Example 1: herbicidal effect test by soil application in paddy rice; conditions: Pontederia vaginalis, soil, 336 h; 120 g active ingredient per 10 ares; applied immediately after sowing, flooded pots; 14 days after application; read-out: weed inhibition rate
Method: (§5) Wagner pots with an area of […] were filled with paddy soil, followed by addition of water and incorporation of chemical fertilizer (N:P:K = 16:16:16), after which puddling was performed. After that, seeds of Echinochloa crus-galli var. formosensis, broad-leaved weeds (Lindernia pyxidaria and Monochoria vaginalis), and Scirpus juncoides were sown at a depth of 0 cm to 1 cm, 30 seeds each. Immediately after sowing, the pots were flooded and a water depth of approximately 3 cm was maintained. Subsequent management was conducted in a glass greenhouse. Immediately thereafter, an emulsifiable concentrate prepared according to Formulation Example 5 using the compound shown below was diluted with water, and a specified amount of the diluted solution was applied by dropper. The amount of the active ingredient to be applied was equivalent to 120 g per 10 ares.
(§6) The present test was conducted in duplicate for each chemical concentration group, and the weed inhibition rate (%) was determined 14 days after chemical application using the following formula (Math. 1). [formula]

[16] = system: Lindernia pyxidaria; test: as above; conditions: 336 h, 120 g active ingredient per 10 ares, applied immediately after sowing, flooded pots, 14 days after application, read-out: weed inhibition rate
Method: as §5, §6

[17] = system: Chenopodium album; test: Test Example 4: herbicidal effect test by stem and leaf treatment in upland field; conditions: 120 g per 10 ares, sprayed seven days after sowing, upland soil, 14 days after application, read-out: weed inhibition rate
[18] = system: Scirpus juncoides; test: Test Example 1: herbicidal effect test by soil application in paddy rice; conditions: Schoenoplectiella juncoides, soil, 336 h; 120 g active ingredient per 10 ares; applied immediately after sowing, flooded pots; 14 days after application; read-out: weed inhibition rate
Outline: as §3

[19] = system: Chenopodium album; test: Test Example 3: herbicidal effect test by soil application in upland field; conditions: 120 g per 10 ares, sprayed one day after sowing, 14 days after application, read-out: weed inhibition rate
Outline: as §1

[20] = system: Scirpus juncoides; test: Test Example 5: herbicidal effect test by soil application in paddy rice (low dose); conditions: Schoenoplectiella juncoides, 336 h, 7.5 g per 10 ares, applied immediately after sowing, flooded pots, 14 days after application, read-out: weed inhibition rate
Method: as §6
as §5, with “(Monochoria” for “(Lindernia pyxidaria and Monochoria”, “7.5” for “120”
The present test was conducted in duplicate for each chemical concentration group, and the herbicidal effect was evaluated 14 days after chemical application using the same criteria as in Test Example 1.

[21] = system: Scirpus juncoides; test: Test Example 2: herbicidal effect test by application during growth period of paddy rice; conditions: Schoenoplectiella juncoides; 120 g per 10 ares; applied seven days after sowing, flooded pots; 14 days after application; read-out: weed inhibition rate
Outline: as §2

[22] = system: Lindernia pyxidaria; test: as above; conditions: 120 g per 10 ares, applied seven days after sowing, flooded pots, 14 days after application, read-out: weed inhibition rate
Outline: as §2

Row | Compound | inhibition at 1200 g/ha [2] | inhibition at 1200 g/ha [4] | inhibition at 1200 g/ha [5] | inhibition at 75 g/ha [6] | inhibition at 1200 g/ha [8] | pest or weed control at 1200 g/ha [10] | inhibition at 1200 g/ha [14] | pest or weed control at 1200 g/ha [18] | also measured
1 | C=C1C(OCc2ccccc2C)C2(C)CCC1(C(C)C)O2 (stereo not shown) |  |  |  |  |  |  |  |  | Weed inhibition rate (%) [1]: 20%
2 | Cc1ccccc1COC1CC2(C(C)C)CCC1(C)O2 (stereo not shown) |  |  |  |  |  |  |  |  | inhibition at 75 g/ha [1]: 73%
3 | CC(C)[C@]12C[C@@H](OCc3ccccc3F)[C@](C)(C[C@H]1O)O2 [1-68, (1R,2R,4S,5R)-5-[(2-fluorophenyl)methoxy]-4-methyl-1-isopropyl-7-oxabicyclo[2.2.1]heptan-2-ol] | ≥ 80% | ≥ 80% | ≥ 80% | ≥ 80% | ≥ 80% | ≥ 80% |  |  | inhibition at 1200 g/ha [3]: ≥ 80%; inhibition at 75 g/ha [7]: ≥ 80%; inhibition at 75 g/ha [9]: ≥ 80%; inhibition at 75 g/ha [11]: ≥ 80%; inhibition at 75 g/ha [12]: ≥ 80%; inhibition at 75 g/ha [13]: ≥ 80%
4 | CC(C)[C@]12C[C@@H](OCc3ccccc3F)[C@](C)(C[C@@H]1C)O2 [1-93, (1S,2R,4R,5S)-2-[(2-fluorophenyl)methoxy]-1,5-dimethyl-4-isopropyl-7-oxabicyclo[2.2.1]heptane] | ≥ 80% | ≥ 80% | ≥ 80% |  | ≥ 80% | ≥ 80% | ≥ 80% |  | inhibition at 75 g/ha [1]: 100%
5 | CC(C)[C@]12C[C@@H](OCc3ccccc3F)[C@](C)(CC1c1ccc(F)cc1)O2 (stereo partly drawn) [1-924, (1S,2R,4R)-2-((2-fluorobenzyl)oxy)-5-(4-fluorophenyl)-4-isopropyl-1-methyl-7-oxabicyclo[2.2.1]heptane] | ≥ 80% |  | ≥ 80% |  | ≥ 80% | ≥ 80% | ≥ 80% | ≥ 80% | pest or weed control at 1200 g/ha [15]: ≥ 80%; pest or weed control at 1200 g/ha [16]: ≥ 80%; inhibition at 1200 g/ha [17]: ≥ 80%
6 | CC(C)[C@]12C[C@@H](OCc3ccccc3C(F)(F)F)[C@](C)(CC1=O)O2 [2-29, (1R,4S,5R)-1-isopropyl-4-methyl-5-((2-(trifluoromethyl)benzyl)oxy)-7-oxabicyclo[2.2.1]heptan-2-one] | ≥ 80% | ≥ 80% | ≥ 80% | ≥ 80% | ≥ 80% | ≥ 80% | ≥ 80% | ≥ 80% | inhibition at 1200 g/ha [3]: ≥ 80%; inhibition at 1200 g/ha [19]: ≥ 80%; inhibition at 75 g/ha [7]: ≥ 80%; inhibition at 75 g/ha [12]: ≥ 80%; inhibition at 75 g/ha [13]: ≥ 80%; inhibition at 75 g/ha [20]: ≥ 80%
7 | Cc1cccc(CO[C@@H]2C[C@]3(C(C)C)O[C@@]2(C)CC3=O)c1 [2-352, (1R,4S,5R)-1-isopropyl-4-methyl-5-((3-methylbenzyl)oxy)-7-oxabicyclo[2.2.1]heptan-2-one] | ≥ 80% | ≥ 80% | ≥ 80% | ≥ 80% | ≥ 80% | ≥ 80% | ≥ 80% | ≥ 80% | inhibition at 1200 g/ha [21]: ≥ 80%; inhibition at 1200 g/ha [22]: ≥ 80%; inhibition at 75 g/ha [9]: ≥ 80%
